The text below walks through data of patent publication US20100249071A1, “Modulators of S1P and Methods of Making And Using” (Exelixis, Inc., priority 2009, published 2010).

Where two headings read alike, the source gives them in different places. Where only a bound is given, the exact number is not on record here.

In general, EC50 refers to the midpoint of the concentration-response curve.

Assay [1] has as its target T1, S1P1 (Homo sapiens, UniProt P21453).
T1 construct: host or cells: U2OS
The assay can be described thus: Tango β-arrestin recruitment assay in U2OS cells (Assay 2b). The format is cell-based. An excerpt: (§1) For the Tango™ β-arrestin recruitment assay, the cytoplasmic C-terminus of S1P1 was tethered to the tTA transcriptional activator with a linker that contains a cleavage site for the N1a protease from tobacco etch virus (TEV protease). The C-terminus of the human β-arrestin2 protein was fused to TEV protease. Binding of an agonist recruits the βl -arrestin-TEV fusion protein to the receptor resulting in cleavage of the linker and released of tTA to enter the nucleus and subsequently activated a tTA-dependent luciferase reporter gene.
Assay 2b: Alternatively, U2OS cells expressing the reporter gene and S1P1 (Invitrogen) were added to the wells of a 384-well white opaque bottom assay plate (PerkinElmer) at […]. The cells were serum starved for 48 h in Freestyle medium (Invitrogen). Test compounds were tested at maximum concentrations of 1 μM for the agonist assay. Compounds were diluted in DMSO (10 concentration points, 3-fold each) and added to the assay plate at a 1% final DMSO concentration. The efficacy control was 1 μM S1P (Avanti). For each compound, there were duplicate assay plates and each assay plate had duplicate wells per concentration point. The plate was incubated overnight at 37° C. The GeneBLAzer β-lactamase assay reagent (Invitrogen) was added and the plates were incubated for an additional 2 h at room temperature. Fluorescence was measured using an EnVision plate reader (PerkinElmer, Waltham, Mass.) at an excitation wavelength of 409 nm and emission wavelengths of 460 nm and 530 nm. The emission intensity at each wavelength was background subtracted against wells containing medium only and the F460 nm/F530 nm ratio determined for each concentration of the test compounds. Percent activity was calculated as [(test compound ratio−DMSO ratio)/(positive control ratio−DMSO ratio)*100], where the positive control and DMSO ratios are from cells incubated with the efficacy control 1 μM S1P and 1% DMSO, respectively. The percent activities were plotted against compound concentration to determine EC50 using XLFit (IDBS).

Assay [2] concerns the target T2, hS1P1R (hEdg1) membrane protein (Homo sapiens, UniProt P21453).
T2 construct: purchased Lonza
As to the kind of experiment: hS1P1R GTPγS binding assay (Assay 3a). In kind it is biochemical. The method, then: Assay 3a: The hS1P1R GTPγS binding assay was carried out at room temperature in 96 well non-binding surface assay plates. The reaction in each well contained 4 μg hS1P1R (hEdg1) membrane protein (Lonza), 30 μM GDP, 0.1 nM [^35S]GTPγS, 0.25% fatty acid free BSA, and serially diluted hS1P1R agonist compound in 200 μL assay buffer (25 mM Tris-HCl PH 7.9, 100 mM NaCl, 3 mM MgCl2, and 0.2 mM EGTA). After one hour of incubation, 0.9 mg of WGA (Wheat Germ Agglutinin) SPA beads in 50 μL of assay buffer was added to each well. The SPA beads were spun down after an additional one hour incubation. The radioactivity of the bound GTPγS was counted by reading the assay plate using a MicroBeta.

Assay [3] deals with T3, S1P3 (Homo sapiens, UniProt Q99500).
T3 construct: host or cells: HEK293 (transient transfection)
T3 sequence (P32121 whole entry): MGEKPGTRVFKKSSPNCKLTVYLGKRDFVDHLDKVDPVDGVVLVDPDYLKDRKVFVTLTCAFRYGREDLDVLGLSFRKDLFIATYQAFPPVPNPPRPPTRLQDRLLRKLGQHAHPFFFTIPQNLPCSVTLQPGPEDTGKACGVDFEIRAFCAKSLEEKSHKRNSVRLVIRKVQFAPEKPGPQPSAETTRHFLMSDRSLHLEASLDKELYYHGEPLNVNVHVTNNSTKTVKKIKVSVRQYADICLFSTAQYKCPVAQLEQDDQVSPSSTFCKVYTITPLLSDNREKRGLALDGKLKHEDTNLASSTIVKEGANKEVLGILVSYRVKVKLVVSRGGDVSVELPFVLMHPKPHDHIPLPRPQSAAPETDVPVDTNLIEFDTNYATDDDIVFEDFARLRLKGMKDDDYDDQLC
T3 sequence (Q99500 whole entry): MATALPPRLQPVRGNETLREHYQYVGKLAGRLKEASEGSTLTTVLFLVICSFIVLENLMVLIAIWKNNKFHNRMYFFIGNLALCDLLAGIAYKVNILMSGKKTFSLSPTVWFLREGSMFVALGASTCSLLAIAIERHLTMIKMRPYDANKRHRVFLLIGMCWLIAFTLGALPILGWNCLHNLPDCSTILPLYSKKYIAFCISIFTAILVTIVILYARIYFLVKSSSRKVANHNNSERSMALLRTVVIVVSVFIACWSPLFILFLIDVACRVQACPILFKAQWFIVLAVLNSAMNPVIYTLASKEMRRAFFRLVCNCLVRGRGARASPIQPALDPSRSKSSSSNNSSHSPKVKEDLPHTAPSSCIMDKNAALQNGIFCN
As to the kind of experiment: S1P3 Tango β-arrestin recruitment assay in HEK293 cells (Assay 5). In kind it is cell-based. Conditions: read-out: Assay 5 EC50.
Source text: as §1
Assay 2a: Frozen HEK293 cells transiently transfected with receptor cDNAs for S1P1 (Invitrogen) are thawed and suspended in 10 mL of Pro293a-CDM culture medium (Invitrogen) supplemented with 4 mM L-Glutamine (Invitrogen), 1× Pen/Strep (100 units/mL penicillin and 100 μg/mL streptomycin, Invitrogen) and 0.1% fatty acid free BSA (Sigma-Aldrich). Cells are added to the wells of a 384-well white opaque bottom assay plate (PerkinElmer) at 3,000-6,000 cells per well and the plate is incubated for approximately 4 h in a 37° C. incubator. Test compounds are tested at maximum concentrations of 10 μM for the agonist assays. Compounds are diluted in DMSO (10 concentration points, 3-fold each) and added to the assay plate at a 1% final DMSO concentration. For each compound, there are duplicate assay plates and each assay plate has duplicate wells per concentration point. The plate is incubated at 37° C. for 30 min. The efficacy control is 5 μM S1P (Avanti). Following agonist addition, the assay plates are incubated in a 37° C. incubator for 16-18 h. Luciferase assay reagent is added and luminescence measured in an EnVision plate reader (PerkinElmer). To determine agonist activity, percent activity is calculated as [(test compound−background)/(positive control−background)*100], where background is the luminescence of the DMSO alone control and the positive control is the luminescence from cells incubated with the efficacy control 5 μM S1P. The percent activities are plotted against compound concentration to determine EC50 using XLFit (IDBS).
This assay was conducted using the procedures described in Assay 2a, replacing S1P1 with S1P3.
(Activated receptors often draw arrestin, which recruitment assays turn into a signal.)

Assay [4] addresses T4, hS1PR5 (hEdg8) membrane protein (Homo sapiens, UniProt Q9H228).
T4 construct: expressed in transfected cells; host or cells: CHO
The assay can be described thus: hS1P5R GTPγS binding assay (Assay 4). In kind it is biochemical. The method, then: The hS1PR5 GTPγS binding assay was carried out at room temperature in 96-well non-binding surface assay plates. The reaction in each well contained 5 μg hS1PR5 (hEdg8) membrane protein from CHO cells expressing hS1PR5, 30 μM GDP, 0.1 nM [^35S]GTPγS, 0.25% fatty acid free BSA, and serially-diluted Compound of the Invention in 200 μL assay buffer (25 mM Tris-HCl PH 7.9, 100 mM NaCl, 3 mM MgCl2, and 0.2 mM EGTA). After one hour of incubation, 0.9 mg of WGA (Wheat Germ Agglutinin) SPA beads in 50 μL of assay buffer was added to each well. The SPA beads were spun down after an additional one hour incubation. The radioactivity of the bound GTPγS was counted by reading the assay plate using a MicroBeta.

T1 sequence (P32121 whole entry): as the sequence (P32121 whole entry) above
T1 sequence (P21453 whole entry): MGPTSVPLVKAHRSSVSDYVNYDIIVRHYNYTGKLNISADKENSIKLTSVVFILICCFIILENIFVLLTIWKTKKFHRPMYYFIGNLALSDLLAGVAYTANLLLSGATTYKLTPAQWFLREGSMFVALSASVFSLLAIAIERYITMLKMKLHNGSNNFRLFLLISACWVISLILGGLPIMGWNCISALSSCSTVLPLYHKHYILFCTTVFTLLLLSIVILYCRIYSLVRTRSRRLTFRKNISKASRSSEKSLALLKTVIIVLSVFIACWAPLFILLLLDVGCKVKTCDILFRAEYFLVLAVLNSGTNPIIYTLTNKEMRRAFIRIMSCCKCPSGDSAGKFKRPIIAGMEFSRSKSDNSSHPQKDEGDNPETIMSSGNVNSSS
T4 sequence (Q9H228 whole entry): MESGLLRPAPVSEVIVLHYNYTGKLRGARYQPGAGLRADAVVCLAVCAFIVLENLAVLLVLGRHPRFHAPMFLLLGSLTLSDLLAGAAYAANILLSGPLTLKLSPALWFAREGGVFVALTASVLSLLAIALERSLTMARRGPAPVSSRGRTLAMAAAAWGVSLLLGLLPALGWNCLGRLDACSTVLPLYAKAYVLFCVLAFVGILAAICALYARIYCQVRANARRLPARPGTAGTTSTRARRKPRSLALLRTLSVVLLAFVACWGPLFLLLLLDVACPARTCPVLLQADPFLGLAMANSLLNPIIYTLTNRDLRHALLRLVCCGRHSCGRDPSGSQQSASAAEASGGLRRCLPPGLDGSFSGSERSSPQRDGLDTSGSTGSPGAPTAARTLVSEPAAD
T2 sequence (P21453 whole entry): as the sequence (P21453 whole entry) above

`N[C@H](CO)COc1cc(Cl)c(-c2nnc(-c3cc(-c4ccccc4)c(C(F)(F)F)s3)s2)cc1F` [Entry 84, (2R)-2-amino-3-[(5-chloro-2-fluoro-4-{5-[4-phenyl-5-(trifluoromethyl)-2-thienyl]-1,3,4-thiadiazol-2-yl}phenyl)oxy]propan-1-ol]: the EC50 in assay [1] (read-out: Assay 2b EC50) was in the range of 250 to 2800 nM.
With `CC(C)Oc1ccc(-c2nnc(-c3cc(F)c(OC[C@@H](N)CO)cc3Cl)s2)nc1Cl` [Entry 33, (2S)-2-amino-3-{[5-chloro-4-(5-{6-chloro-5-[(1-methylethyl)oxy]pyridin-2-yl}-1,3,4-thiadiazol-2-yl)-2-fluorophenyl]oxy}propan-1-ol], the results for the EC50 in assay [2], in assay [1] (read-out: Assay 2b EC50) and in assay [3] were 10 to 50 nM, no more than 10 nM and no more than 250 nM, respectively.
In the case of `N[C@H](CO)COc1cc(Cl)c(-c2nnc(-c3cc(Br)cc(Br)c3)s2)cc1F` [Entry 30, (2R)-2-amino-3-({5-chloro-4-[5-(3,5-dibromophenyl)-1,3,4-thiadiazol-2-yl]-2-fluorophenyl}oxy)propan-1-ol], the EC50 in assay [2] lay in the range of 250 to 2800 nM; in assay [1] (read-out: Assay 2b EC50), 250 to 2800 nM; in assay [4], 2800 to 10000 nM.
As for `N[C@H](CO)COc1cc(Cl)c(-c2nnc(-c3cc(Cl)cc(Br)c3)s2)cc1F` [Entry 23, (2R)-2-amino-3-({4-[5-(3-bromo-5-chlorophenyl)-1,3,4-thiadiazol-2-yl]-5-chloro-2-fluorophenyl}oxy)propan-1-ol], the EC50 in assay [2], in assay [1] (read-out: Assay 2b EC50) and in assay [4] was 250 to 2800 nM each time.
Turning to `CC(C)N(C)c1ccc(-c2nnc(-c3cc(F)c(OCC(N)CO)cc3Cl)s2)cn1` (stereo not shown) [Entry 36, 2-amino-3-{[5-chloro-2-fluoro-4-(5-{6-[methyl(1-methylethyl)amino]pyridin-3-yl}-1,3,4-thiadiazol-2-yl)phenyl]oxy}propan-1-ol], the EC50 in assay [2] was 250 to 2800 nM; in assay [1] (read-out: Assay 2b EC50), no more than 10 nM; in assay [3], no more than 250 nM.
As to `CCCOc1ccc(-c2nnc(-c3cc(F)c(OC[C@H](N)CO)cc3Cl)s2)cc1` [Entry 91, (2R)-2-amino-3-[(5-chloro-2-fluoro-4-{5-[4-(propyloxy)phenyl]-1,3,4-thiadiaozl-2-yl}phenyl)oxy]propan-1-ol], the EC50 lay within 50 to 250 nM in assay [2], 250 to 2800 nM in assay [1] (read-out: Assay 2b EC50) and 250 to 2800 nM in assay [4].
On to `CC(C)Oc1ccc(-c2nnc(-c3ccc(OC[C@H](N)CO)cc3Cl)s2)cc1Cl` [Entry 34, (2R)-2-amino-3-{[3-chloro-4-(5-{3-chloro-4-[(1-methylethyl)oxy]phenyl}-1,3,4-thiadiazol-2-yl)phenyl]oxy}propan-1-ol], for which the EC50 in assay [2] is 10 to 50 nM; in assay [1] (read-out: Assay 2b EC50), 50 to 250 nM; in assay [3], greater than 10000 nM.
In the case of `NC(CO)COc1cc(Cl)c(-c2nnc(-c3cn4ccsc4n3)s2)cc1F` (stereo not shown) [Entry 4, 2-amino-3-{[5-chloro-2-fluoro-4-(5-imidazo[2,1-b][1,3]thiazol-6-yl-1,3,4-thiadiazol-2-yl)phenyl]oxy}propan-1-ol], the EC50 in assay [2] was greater than 10000 nM; in assay [1] (read-out: Assay 2b EC50), 50 to 250 nM.
Take `N[C@H](CO)COc1cc(Cl)c(-c2nnc(-c3ccc(OC(F)(F)F)cc3)s2)cc1F` [Entry 7, (2R)-2-amino-3-{[5-chloro-2-fluoro-4-(5-{4-[(trifluoromethyl)oxy]phenyl}-1,3,4-thiadiazol-2-yl)phenyl]oxy}propan-1-ol]: the EC50 in assay [2] is 50 to 250 nM; in assay [1] (read-out: Assay 2b EC50), 250 to 2800 nM.
Take `Cc1cc(-c2nnc(-c3cc(F)c(OC[C@H](N)[C@H](C)O)cc3Cl)s2)cnc1NC(C)C` [Entry 66, (2S,3S)-3-amino-4-{[5-chloro-2-fluoro-4-(5-{5-methyl-6-[(1-methylethyl)amino]pyridin-3-yl}-1,3,4-thiadiazol-2-yl)phenyl]oxy}butan-2-ol]: the half-maximal effective concentration (EC50) in assay [1] (* = rEC50 measured rather than EC50, read-out: Assay 2b rEC50 (relative EC50, cells marked *)) was 250 to 2800 nM.
Turning to `CC(C)Oc1c(Cl)cc(-c2nnc(-c3cc(F)c(OC[C@H](N)CO)cc3Cl)s2)cc1Cl` [Entry 26, (2R)-2-amino-3-{[5-chloro-4-(5-{3,5-dichloro-4-[(1-methylethyl)oxy]phenyl}-1,3,4-thiadiazol-2-yl)-2-fluorophenyl]oxy}propan-1-ol], the EC50 in assay [2] fell in the range of 50 to 250 nM; in assay [1] (read-out: Assay 2b EC50) it was 250 to 2800 nM; in assay [4], 250 to 2800 nM.
As to `CC(C)Oc1cc(Br)cc(-c2nnc(-c3cc(F)c(OC[C@H](N)CO)cc3Cl)s2)c1` [Entry 27, (2R)-2-amino-3-{[4-(5-{3-bromo-5-[(1-methylethyl)oxy]phenyl}-1,3,4-thiadiazol-2-yl)-5-chloro-2-fluorophenyl]oxy}propan-1-ol], the EC50 in assay [2] is 50 to 250 nM; in assay [1] (read-out: Assay 2b EC50) it was 250 to 2800 nM.
In the case of `CC(C)Nc1cc(-c2nnc(-c3cc(F)c(OC[C@H](N)[C@H](C)O)cc3Cl)s2)ccn1` [Entry 58, (2S,3S)-3-amino-4-{[5-chloro-2-fluoro-4-(5-{2-[(1-methylethyl)amino]pyridin-4-yl}-1,3,4-thiadiazol-2-yl)phenyl]oxy}butan-2-ol], the EC50 in assay [2] lay within 50 to 250 nM; in assay [1] (read-out: Assay 2b EC50) it was 250 to 2800 nM; in assay [4] it was 250 to 2800 nM.
Regarding `CC(C)Oc1ccc(-c2nnc(-c3cc(F)c(OC[C@H](N)CO)cc3Cl)s2)cc1F` [Entry 42, (2R)-2-amino-3-{[5-chloro-2-fluoro-4-(5-{3-fluoro-4-[(1-methylethyl)oxy]phenyl}-1,3,4-thiadiazol-2-yl)phenyl]oxy}propan-1-ol], the EC50 lay in the range of 10 to 50 nM in assay [2], 50 to 250 nM in assay [1] (read-out: Assay 2b EC50) and 50 to 250 nM in assay [4].
Turning to `N[C@H](CO)COc1cc(Cl)c(-c2nnc(-c3ccc(OC(F)(F)F)c(Cl)c3)s2)cc1F` [Entry 8, (2R)-2-amino-3-{[5-chloro-4-(5-{3-chloro-4-[(trifluoromethyl)oxy]phenyl}-1,3,4-thiadiazol-2-yl)-2-fluorophenyl]oxy}propan-1-ol], the values for the EC50 in assay [2] and in assay [1] (read-out: Assay 2b EC50) were 50 to 250 nM and 250 to 2800 nM, respectively.
In the case of “(1R,2R)-2-amino-3-{[5-chloro-2-fluoro- 4-(5-{2-methyl-6-[(1- methylethyl)amino]pyridin-4-yl}-1,3,4- thiadiazol-2-yl)phenyl]oxy}-1- methylpropyl dihydrogen phosphate [Entry 100]”, the EC50 was no more than 10 nM in assay [2], no more than 10 nM in assay [1] (read-out: Assay 2b EC50) and 10 to 50 nM in assay [4].
